Here are results for ten compounds from patent US4727150A, “Pyridyl methylsulfinyl benzimidazole derivatives” (Takeda Chemical Industries, Ltd., priority 1984, dated 1988).

The first series deals with mice. The experiment in a line: Oral toxicity in mice. Format: in vivo. The conditions noted are these: oral administration, 500 mg/kg.
Regarding `CCCOc1ccnc(C[S+]([O-])c2nc3ccccc3[nH]2)c1` (centres unmarked) [R^1 =H, R^2 =H, R^3 =(CH2)2 CH3, R^4 =H], the fatal effect entry was “no fatal effect”.

The test system of a further series is gastric mucosa. The experiment in a line: Ethanol-induced gastric mucosal injury in rats (action of protecting gastric mucosa). The following applies: Rattus norvegicus, po; 6 rats per group; 1, 3, 10 and 30 mg/kg into stomach; 100% ethanol 1 ml orally 30 min later; lesions measured 60 min after ethanol; read-out: Action of protecting gastric mucosa ID50. In kind it is in vivo, Male Sprague-Dawley rats. As for the experimental part: As a method of determining the protecting ability of gastric mucosa, gastric mocosal injury induced by ethanol [Robert A., Gastroenterology 77, 761 (1979)] is often used. This method was applied to evaluation of the compounds of this invention. Male Sprague-Dawley rats of 7-weeks old were fasted for 24 hours. These animals were administered test compounds into stomach by using a gastric tube. After 30 minutes, 1 ml of 100% ethanol was administered orally. The animals were killed by carbon dioxide gas 60 minutes after ethanol administration. The stomach was removed together with the lower part of esophagus and the duodenum. The esophagus was clipped, 10 ml of 1% formalin solution was instilled into the stomach from the duodenum, and then the duodenum was clipped. The whole stomach was immersed in 1% formalin solution. About 15 minutes later, the stomachs were opened along the greater curvature. The length of the lesions which occurred in the gastric antral mucosa was measured under a dissecting microscope with a square-grid eye piece (×10). The sum total length of the individual lesions in each animal was measured, and the average value per group was calculated. Based on the difference between the average value of each group and that of the control group, the inhibition rate was determined. The test compound was suspended in a 5% gum arabic solution, and administered in a volume of 2 ml/kg. | ^(a) Using 6 rats per group, each of the test compounds was | administered in a dose of 1, 3, 10 and 30 mg/kg to determine ID50.
For `CCCCOc1ccnc(C[S+]([O-])c2nc3ccccc3[nH]2)c1` (centres unmarked) [R^1 =H, R^2 =H, R^3 =(CH2)3 CH3, R^4 =H], the ED50 came to 9.8 mg/kg.
For `CC(C)Oc1ccnc(C[S+]([O-])c2nc3cc(C(F)(F)F)ccc3[nH]2)c1` (centres unmarked), the ED50 was found to be 5.8 mg/kg.
In the case of `CCCCCCOc1ccnc(C[S+]([O-])c2nc3ccccc3[nH]2)c1` (centres unmarked) [R^1 =H, R^2 =H, R^3 =(CH2)5 CH3, R^4 =H], the ED50 turned out to be 1.6 mg/kg.
Still for that read-out and setting: the figure for `CCCCCCCCOc1ccnc(C[S+]([O-])c2nc3ccccc3[nH]2)c1` (centres unmarked) [R^1 =H, R^2 =H, R^3 =(CH2)7 CH3, R^4 =H] is 1.6 mg/kg.
On the same count and under the same terms, the figure for `COc1ccc2[nH]c([S+]([O-])Cc3ncc(C)c(OC)c3C)nc2c1` (centres unmarked) [reference compound] is 22 mg/kg.
Same read-out and setting: the figure for `CC(C)Oc1ccnc(C[S+]([O-])c2nc3cc(F)ccc3[nH]2)c1` (centres unmarked) [R^1 =5-F, R^2 =H, R^3 =CH(CH3)2, R^4 =H] is 8.8 mg/kg; for `CC(C)Oc1ccnc(C[S+]([O-])c2nc3ccccc3[nH]2)c1` (centres unmarked) [R^1 =H, R^2 =H, R^3 =CH(CH3)2, R^4 =H] it is 1.3 mg/kg; for `CCCOc1ccnc(C[S+]([O-])c2nc3ccccc3[nH]2)c1` (centres unmarked) [R^1 =H, R^2 =H, R^3 =(CH2)2 CH3, R^4 =H] it is 7.2 mg/kg.
`COc1ccnc(C[S+]([O-])c2nc3cc(C(F)(F)F)ccc3[nH]2)c1C` (centres unmarked) [R^1 =5-CF3, R^2 =CH3, R^3 =CH3, R^4 =H, reference compound]: the ED50 amounted to 24 mg/kg.
For `CCCOc1ccnc(C[S+]([O-])c2nc3ccccc3[nH]2)c1C` (centres unmarked) [2-[3-methyl-4-propoxy-2-pyridyl)methylsulfinylbenzimidazole], the ED50 came out at 12.5 mg/kg.
